The results in this text go back to patent US20230099969A1, “TWO-PHOTON FLUORESCENT PROBE COMPOUND SELECTIVE FOR AMYLOID BETA PLAQUES AND METHOD FOR IMAGING AMYLOID BETA PLAQUES USING SAME” (Korea University Research and Business Foundation, priority 2020, published 2023).

One data set has as its target T1, Aβ fibrils (Aβ1-42) (Homo sapiens, UniProt P05067).
T1 construct: lyophilized Aβ1-42 peptides were dissolved in 100% HFIP; purchased GenicBio Limited (Shanghai, China)
In words: Aβ1-42 saturation titration (fluorescence at 566 nm). It counts as binding. The procedure: (§1) Aβ1-42 protein was prepared following a literature procedure (J. Hatai, L. Motiei, D. Margulies, J. Am. Chem. Soc. 2017, 139, 2136-2139). Briefly, lyophilized Aβ1-42 peptides were dissolved in 100% HFIP (1,1,1,3,3,3-hexafluoro-2-isopropanol) at a concentration of 2 mg mL^−1 and incubated at 25° C. for 2 h. After incubation, solution was removed under a gentle flow of argon. The peptide was dried using a lyophilizer for 40 h. AO (1 mg) was resuspended in aqueous NaOH (0.5 mL, 2 mM) and sonicated at 0° C. for 10 min. HFIP/NaOH-treated AO samples were diluted to 200 μM with PBS (0.6 mL, […], pH=7.4) and agitated using a shaker (Biofree) for 30 h. The solution was diluted to 20 μM with PBS (9.9 mL, 20 mM, pH=7.4), prior to each experiment.
Both Aβ1-42 and IRI-1 are virtually non-fluorescent, and a simplified formula can be used where the fluorescence intensity is directly proportional to the concentration of the (Aβ1-42-IRI-1) complex only:
With F: a fluorescence proportionality factor, [IRI1]: the initial concentration of IRI-1, [Aβ]: the initial concentration of Aβ1-42, N: the number of equivalent binding sites on the Aβ fibril relative to Aβ monomer, and Kd: the dissociation constant.
The results in FIG. 1D were obtained following a multi-parameter optimization of the experimental results following the fluorescence intensity at 566 nm, using a concentration of 10 μM Aβ1-42 and incremental concentrations of IRI-1 in PBS containing 2% DMF. The slit width was set at 3/3. The best fittings were obtained for N=¼, i.e. one binding site per 4 Aβ1-42, consistent with the hypothesized high affinity cross-β-sheet binding site on the protein fibril.

Another data set has as its target T2, Aβ fibrils (Homo sapiens, UniProt P05067).
T2 construct: lyophilized Aβ1-42 peptides were dissolved in 100% HFIP; purchased GenicBio Limited (Shanghai, China)
In words: Fluorescence response in the presence of Aβ fibrils. The note with it: Aβ fibrils 20 μM versus PBS containing 2% DMF. The procedure:
(§2) To measure spectra in the presence of analytes, stock solutions of ThT and IRI-1 were prepared in DMF and added to solutions of the analytes in PBS to finally obtain a solution containing 2% DMF. All emission spectra were obtained after 2 min stirring at 37° C. The excitation and emission slit widths were 3/5.
as §1

Data set [1] in a line: Fluorescence response to potential interferents. To be noted: metal ions, amino acids, thiols 20 μM in PBS, λem 566 nm. The procedure: as §2
The target in data set [2] is T3, bovine serum albumin (BSA) (Bos taurus, UniProt P02769).
T3 construct: purchased
T3 sequence (P02769 25-607): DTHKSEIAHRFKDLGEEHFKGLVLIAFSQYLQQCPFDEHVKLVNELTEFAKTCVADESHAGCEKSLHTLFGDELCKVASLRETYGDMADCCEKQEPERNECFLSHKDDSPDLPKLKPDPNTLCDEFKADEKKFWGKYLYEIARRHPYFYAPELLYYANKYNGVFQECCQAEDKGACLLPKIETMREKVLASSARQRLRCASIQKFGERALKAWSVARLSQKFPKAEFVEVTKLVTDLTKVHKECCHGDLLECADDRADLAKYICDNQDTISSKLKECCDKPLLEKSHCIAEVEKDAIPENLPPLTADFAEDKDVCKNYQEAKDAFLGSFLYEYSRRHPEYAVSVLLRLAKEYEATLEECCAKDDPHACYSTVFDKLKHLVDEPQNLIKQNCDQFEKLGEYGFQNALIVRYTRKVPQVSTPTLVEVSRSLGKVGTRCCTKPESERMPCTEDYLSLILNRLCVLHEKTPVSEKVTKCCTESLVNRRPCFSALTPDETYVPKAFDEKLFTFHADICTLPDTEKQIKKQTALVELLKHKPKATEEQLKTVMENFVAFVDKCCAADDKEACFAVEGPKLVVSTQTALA
In words: Fluorescence in the presence of BSA. The note with it: BSA 20 μM, PBS pH 7.4, 2% DMF. Here is the method:
as §2

Data set [3] concerns the target T4, human serum albumin (HSA) (Homo sapiens, UniProt P02768).
T4 construct: purchased
In words: Fluorescence in the presence of HSA. The note with it: HSA 20 μM, PBS pH 7.4, 2% DMF. Here is the method: as §2

Data set [4] can be described thus: Fluorescence in mouse brain homogenates. The procedure: as §2
Male ICR mice (10-weeks-old) from Daehan Biolink Co. Ltd. (Eumseong, Korea) were used in this experiment. The mice were accommodated at a constant temperature (23±1° C.), humidity (60±10%), and a 12 h light/dark cycle with free access to water and food. The mice were handled in accordance with the Principle of Laboratory Animal Care (NIH Publication No. 80-23; revised 1978) and the Animal Care and Use Guidelines of KyungHee University, Seoul, Korea (approval number: KHUASP(SE)-18-130). Mice were anesthetized with tribromoethanol (20 μL/g of body weight, Sigma Aldrich, USA) and then, the whole brain was removed quickly. After the washing with 0.1 M PBS, the brain tissue was excised by scissors and homogenized with a pellet pestles cordless motor (Sigma Aldrich, USA) in 2 mL of 0.1 M PBS (pH 7.4). The mixture was centrifuged at 1,000 g (Smart R17 Plus centrifuge, Hanil Scientific, Korea) for 15 min at 4° C. and the supernatant was collected. The pooled brain homogenates of 3 mice were collected and diluted to a final volume of 6 mL with PBS and used for fluorescence studies.

Data set [5] is described as follows: Solubility of IRI-1 in PBS (absorbance at 405 nm). It counts as physicochemical. To be noted: aqueous buffer, kinetic from dmso stock, PBS containing 2% DMSO, read-out: concentration up to which the dye exists as a monomer in PBS, above which soluble aggregates form. The procedure: The absorbance of IRI-1 at different concentrations in the 0-50 μM range was recorded at 405 nm in a PBS solution containing 2% DMSO. Deviation from linearity indicates the formation of aggregates.

The nature of data set [6]: pH-dependent absorbance, pKa fitting. To be noted: PBS (10 mM) with pH adjustment; absorbance at 405 nm, pH 2-10, PBS 10 mM. It counts as physicochemical. Here is the method:
The absorbance of IRI-1 (10 μM) was recorded in PBS (10 mM), with pH adjustment, to maintain a constant salt concentration.

A short description of another data set: Photostability in DMF. It counts as physicochemical. The note with it: solution in DMF, halogen lamp irradiation 35 min. The procedure: A solution of IRI-1 with an absorbance of 1.0 at the maximum absorbance wavelength was prepared in DMF. A 3100 K halogen lamp (Olympus LG-PS2; 12 V, 100 W) was used for irradiation and the absorbance was recorded at 5 min intervals for 35 min.

The subject of another data set is SH-SYSY cells. In words: Cell viability MTT assay. The note with it: concentrations up to 50 μM, 24 h. The format is cell-based, human. Here is the method:
Cell viability was assessed by the MTT (3-4,5-dimethylthiazol-2-yl)-2,5-diphenyltetrazolium bromide) assay. SH-SYSY cells (1×10^4 per well) were treated with various concentrations of IRI-1 in a 96-well plate for 24 h at 37° C.
In general terms: Tetrazolium dyes change colour on reduction, which living cells bring about.

For data set [7], the target named is T5, Aβ plaques (Homo sapiens, UniProt P05067).
T5 construct: from tissue; host or cells: brain of 5xFAD-Tg mice: ex vivo slices at 11 months, in vivo frontal cortex at 10-12 months
T5 sequence (P05067 672-713 limits assumed): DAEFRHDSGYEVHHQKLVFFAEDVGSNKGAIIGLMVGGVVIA
In words: Ex vivo two-photon microscopy imaging of brain slices. Further details: species or system 5xFAD-Tg mice. The note with it: 20 μM, 2 h incubation, n=15. Here is the method:
Brain tissues were isolated from 11-month-old 5xFAD-Tg mice. All animal protocols were approved by the Institutional Animal Care and Use Committee (IACUC) of KyungHee University, Korea (Approval number: KHUSAP (SE)-18-123). The isolated brain was immediately frozen with dry ice and horizontally sectioned by using a surgical blade (No. 10, […] safety razor Co., LTD, Japan). Sectioned brain tissues were immersed in a DMEM-buffered solution containing IBC 2 or IRI-1 (20 μM), and then incubated at 37° C. for different durations (0.5 h, 1 h and 2 h). After incubation, the brain tissues were washed with PBS (×3) and fixed in 4% paraformaldehyde solution until TPM imaging, using upright microscopy (Leica, Nussloch, Germany). […] TPM images were obtained by collecting the fluorescence from an emission channel of 580-779 nm. To compare the plaque and background signal of IBC 2 and IRI-1, TPM images analyzed by using Leica software. 15 Aβ-plaque regions as well as 15 background regions were randomly chosen for each dye at each incubation time. Bootstrap resampling (n=100,000) was performed on the 15 Aβ and background samples to estimate the population distribution of the signal to background ratios for each of the dyes at the different incubation times as well as to estimate the significance level of the difference of these population distributions.

For data set [8], the target named is T5, Aβ plaques. In words: In vivo two-photon microscopy imaging. Set-up: species or system 5xFAD-Tg mice; depth up to which individual Aβ plaques could be detected: unit not given here. Here is the method: All animal studies and maintenance were approved by the Institutional Animal Care and Use Committee (IACUC) of Seoul National University, Korea. 10-12-month-old 5xFAD (Tg6799; Jackson Lab Stock No. 006554) AD model mice were anesthetized with the mixture of Tiletamine-Zolazepam (Virbac, France) and Xylazine (Bayer Korea, Korea) via intramuscular (IM) injection (1.2 mg kg^−1) and then fixed on a customized stereotactic heating plate (37° C., Live cell instrument, Seoul, Korea). The mouse scalp was sterilized with Povidone Iodine (Firson, Korea) and then removed. A drop of Epinephrine was applied to the incision site to relieve local pain and bleeding. The periosteum was also removed in this step. When the scalp and periosteum were clearly removed and the skull dried, a small hole (3 mm diameter) was carefully made in the parietal bone with a microdrill. A 5 mm round coverslip was attached to the surgery site with Loctite 454 and dental acrylate was applied around the site. A solution of IRI-1 in 25% DMSO/PBS (5 mg kg^−1) was injected intraperitoneally (i.p.) before TPM imaging. TPM live imaging was conducted using an LSM 7 MP two-photon laser-scanning microscope (Carl Zeiss Microscopy GmbH, Germany) equipped with a Chameleon-Ultra-II laser system (Coherent, USA). An appropriately tuned laser (780-920 nm wavelength, 30 mW intensity) was applied to the imaging site transiently. Emission signals were obtained through the red channel (555-610 nm), or blue channel (485-490 nm) NDD filter set. TPM images were processed and 3D reconstructed using Volocity Software (Perkin-Elmer, Waltham, Mass., USA).

Another data set in a line: in vitro. The note with it: PAMPA. Background: The PAMPA barrier holds no transporters, so it reflects passive diffusion.
Data set [9] can be described thus: BBB-penetrability PAMPA assay.
Experimental: (§3) The BBB-PAMPA was conducted following the manufacturer's instructions (pION, Inc, MA, USA). […] The transmembrane side to the donor part was coated with BBB-lipid solution and 200 μL acceptor buffer was added in the upper chambers of the PAMPA sandwich plate. After incubation for 4 h at 25° C., all samples were transferred to a new U.V plate and then the U.V spectra were measured at a wavelength from 250 nm to 498 nm with a multifunctional microplate reader (Tecan, Infinite M200 Pro, San Jose, Calif., USA) and the permeability rate (Pe, 10^−6 cm/s) was determined using pION PAMPA Explorer software (ver3.8).
The mark [10] stands for this setting: pH 7.4, Permeability classification.

Usually Kd stands for the equilibrium constant for the complex coming apart. For orientation: pKa means the negative logarithm of the acid dissociation constant. The term Papp denotes the rate of passage across a membrane or cell layer, normalised by area and donor concentration.

≈ marks a conversion by molar mass, not a printed value. Where only a bound is given, the exact number is not on record here.

T1 sequence (P05067 672-713 limits assumed): as above
T2 sequence (P05067 672-713 limits assumed): as above
T4 sequence (P02768 25-609): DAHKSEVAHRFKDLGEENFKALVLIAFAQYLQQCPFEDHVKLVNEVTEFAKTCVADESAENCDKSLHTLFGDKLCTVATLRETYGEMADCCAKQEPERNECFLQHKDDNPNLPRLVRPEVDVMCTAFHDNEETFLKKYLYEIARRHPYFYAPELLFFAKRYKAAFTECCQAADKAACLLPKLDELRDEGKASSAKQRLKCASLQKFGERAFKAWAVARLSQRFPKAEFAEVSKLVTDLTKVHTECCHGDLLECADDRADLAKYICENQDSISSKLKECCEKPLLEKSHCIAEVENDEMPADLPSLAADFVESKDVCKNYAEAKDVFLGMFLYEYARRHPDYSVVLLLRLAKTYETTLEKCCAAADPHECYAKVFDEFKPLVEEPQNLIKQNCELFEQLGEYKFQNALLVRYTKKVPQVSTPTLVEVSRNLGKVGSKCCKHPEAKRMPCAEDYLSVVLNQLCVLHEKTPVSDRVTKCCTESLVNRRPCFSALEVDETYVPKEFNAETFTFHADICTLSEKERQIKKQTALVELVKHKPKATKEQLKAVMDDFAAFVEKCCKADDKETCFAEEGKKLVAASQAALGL
Experimental for in vitro: as §3

As to `CN(C)c1ccc(-c2ccc3cc(C#N)c(=N)oc3c2)cc1` [IRI-1], on Aβ fibrils (Aβ1-42) (Aβ fibrils 10 μM, IRI-1 0-50 μM, PBS containing 2% DMF, nonlinear fitting, read-out: binding affinity toward Aβ fibrils, Kd), the dissociation constant Kd was 374 ± 115 nM. For the same compound, the “N, number of equivalent binding sites on the Aβ fibril relative to Aβ monomer” value at Aβ fibrils (Aβ1-42) (best fitting, one binding site per 4 Aβ1-42) is listed as “¼”. Besides, the “binding affinity relative to that previously reported for ThT” value on Aβ fibrils (Aβ1-42) (versus literature value for ThT) is recorded as “two- to three-folds stronger”. The “fluorescence enhancement in the presence of Aβ fibrils” value at Aβ fibrils stood at 167 fold. Moreover, in data set [1], the “fluorescent response to potential interferants” value is on record as “no or negligible fluorescence enhancement”. Further, in data set [2], the “fluorescence enhancement in the presence of BSA” value was “only relatively weak fluorescence enhancement”. Moreover, the “fluorescence enhancement in the presence of HSA” value in data set [3] is on record as “only relatively weak fluorescence enhancement”. Further, in data set [4], the “fluorescence enhancement in the presence of mouse brain homogenates” value was “only relatively weak fluorescence enhancement”. Further, in data set [5], the solubility came to 4.7 µM (≈ 1.36 µg/mL). For the same compound, the pKa in data set [6] was 4.22 ± 0.12. For the same compound, in the data set “Photostability in DMF”, the resistance to photobleaching result is given as “relatively high resistance to photobleaching”. Moreover, the cytotoxicity entry in the data set with SH-SYSY cells was “no significant toxicity”. Further, the “signal-to-background ratio, elevation compared to IBC-2” value at Aβ plaques [7] is on record as “approximately 3.75 fold”. On Aβ plaques [8] (5 mg kg^−1 i.p.), the BBB penetration result is “good BBB penetration”. The “time to full saturation of fluorescence enhancement of Aβ plaques in the frontal cortex” value on Aβ plaques [8] (5 mg kg^−1 i.p., excitation 920 nm) is recorded as “approximately 40 min”. Further, at Aβ plaques [8] (3D two-photon imaging, 5 mg kg^−1 i.p.), the “depth up to which individual Aβ plaques could be detected” value is on record as at most 172. The “overlap of images with co-administered MeO-X04” value on Aβ plaques [8] (co-administration, frontal cortex) was “near perfect overlap”. Further, the Papp at 4 h in the data set “in vitro” (pH 7.4, Pe) was 0.562 ± 0.053 ×10⁻⁶ cm/s; in “in vitro” (setting [10]), over 0.4 ×10⁻⁶ cm/s.
As for `CC(=O)[C@H]1CC[C@H]2[C@@H]3CCC4=CC(=O)CC[C@]4(C)[C@H]3CC[C@]12C` [Progesterone, reference compound], the Papp at 4 h in “in vitro” (pH 7.4, Pe) was 39.5 ± 5.59 ×10⁻⁶ cm/s; in the data set “in vitro” (setting [10]) it was over 0.4 ×10⁻⁶ cm/s.
As to `Cc1ccc2c(c1)sc(-c1ccc(N(C)C)cc1)[n+]2C.[Cl-]` [Thioflavin T], the “fluorescence enhancement in the presence of Aβ fibrils” value on Aβ fibrils stood at 20 fold. The Permeability classification entry in [9] is “Not permeable”. Besides, the Pe in data set [9] (pH 7.4, 4 h at 25° C., mean and standard deviation, n = 3) is given as 0^c 10^−6 cm/s.
